According to patent US7563805B2, “Tri-, tetra-substituted-3-aminopyrrolidine derivative” (Daiichi Pharmaceutical Co., Ltd., priority 2005, dated 2009):
Converted amounts (≈) assume the structure as drawn.

Tests used:
E. coli NIHJ = assay: antibacterial activity (MIC), standard method of Japanese Society of Chemotherapy; conditions: Escherichia coli
[1] = set-up: species or system guinea pigs (Slc:Hertley); conditions: male, Slc:Hertley, guinea pig, in vivo
Method: Guinea pig maximization test (GPMT) which is a widely accepted model for delayed antigenicity was conducted according to the method of Mugnusson et al. (J. invest. Dermatol., 52, 1969) by using a cutaneous sensitization concentration of 1% and a patch sensitization and induction concentration of 10%. At day 1, the animal was sensitized by cutaneously administering the test substance (the quinolone compounds and the control: vehicle, vaseline) (1% solution in physiological saline+FCA emulsion) at the back of the head of the shaved guinea pigs (7 week old male Slc:Hertley). At day 7, lauryl sodium sulfate (SLC) was applied for stimulus (adjuvant treatment), and on the next day, the test substance coated on a wax paper was patched onto the shaved skin to for sealed sensitization, and after 48 hours (at day 10), the waxed paper was removed. The skin reaction was observed upon the removal. On day 22, the test substance (10%) was patched onto the anterior side of the body for induction, and the induction patching was removed after 24 hours. On the next day (at day 24) and the next day (at day 25), the skin reaction was evaluated according to the description of the document as mentioned above. Erythema and edema were scored, and the case with the total score of 2 or higher was evaluated to be positive with the maximum of the score being 7.

P. vulgaris, 08601 = assay: antibacterial activity (MIC), standard method of Japanese Society of Chemotherapy; conditions: Proteus vulgaris, 08601, P. vulgaris
[2] = test system: bone marrow cells (polychromatic erythrocytes); assay: mouse bone marrow micronucleus test; format: in vivo, Slc:ddY male mice; conditions: single i.v. dose, 24 h, Example 2: 50, 100 mg/kg, Example 3: 100, 150 mg/kg, Example 9: 50, 100, 150 mg/kg
Method: The control was 0.1 mol/l NaOH/physiological saline solvent, and the positive control was cyclophosphamide (cyclophoshamide, CP) dissolved and diluted in physiological saline. All samples were sterilized by filtering through Milex GS filter (0.22 μm). Each solution was intravenously administered at a dose of 10 mL/kg in single dose at an administration rate of 0.2 mL/min.
Bone marrow cells were collected from thigh bone at 24 hours after the administration, and smear preparation was prepared. After staining with acridine orange, 1000 polychromatic erythrocytes per animal were observed under fluorescence microscope to count frequency of micrronucleated polychromatic erythrocyte and ratio of the orthochromatic erythrocytes to the polychromatic erythrocyte in 1000 erythrocytes.

Which MIC (E. coli NIHJ) does the source give for `COc1c(N2CC(C)(N)C3(CC3)C2)c(F)cc2c(=O)c(C(=O)O)cn([C@@H]3C[C@@H]3F)c12` (stereo partly drawn) [Example 9, 7-(7-Amino-7-methyl-5-azaspiro[2.4]heptan-5-yl)-6-fluoro-1-[(1R,2S)-2-fluorocyclopropyl]-8-methoxy-1,4-dihydro-4-oxoquinoline-3-carboxylic acid] here?
The MIC was 0.025 µg/mL (≈ 0.0596 µM).

What about the “Average score in GPMT” value [1] of the same compound?
The value was 0.

And the MIC (P. vulgaris, 08601)?
The MIC was 0.025 µg/mL (≈ 0.0596 µM).

And the “micronucleus induction rate versus control, evaluation result” value [2]?
The value was “negative”.
